Experimental data reported in paper PMC10385664, “Projection of Target Drug Particle Size in Oral Formulations Using the Refined Developability Classification System (rDCS)” (Pharmaceutics, 2023).
Several values for one entry are separate records, joined by “and”; a condition that tells them apart may be missing. Identical values can stand only once.

How the values were obtained:
[1] = Powder dissolution method for estimating IDR in FaSSIF V1; type: physicochemical; conditions: FaSSIF V1, 37 °C, 100 rpm
Protocol: Istradefylline disks could not be prepared because disk compression led to a change in solid state. The IDR of istradefylline was therefore measured (n = 4) according to a published powder dissolution method for estimating rotating disk IDRs. Istradefylline was weighed into an assay vial containing a magnetic crossbar stirrer, in an amount corresponding to approximately twice the amount needed to saturate the medium. The vials were placed in a heating block and 20 mL pre-heated FaSSIF V1 (37.0 ± 0.5 °C) was added to start the dissolution experiments. The medium was stirred at 100 rpm and concentrations were measured with in situ UV-spectroscopy using fiber optic dip probes until a plateau in the dissolution profile was reached. The vials were protected from light with aluminum foil during the entire experiment. […]
The concentration‐time curves for IDR determination were recorded with in situ UV‐spectroscopy using fiber optic dip probes. […] The buffer was stirred at 100 rpm and spectra were recorded approximately 1 minut e after addition of the stock solution. […]
Second derivatives of the UV spectra were used to establish the calibration curves. Multiple wavelength ranges were evaluated, and calibration curves were accepted for further investigation when linear […]

[2] = Conversion of Caco-2 Papp(A⟹B) to effective human permeability (Simcyp Papp–Peff correlation); conditions: for estimated/predicted human Peff: estimated from Caco-2 permeability data; for Estimated human Peff: from Papp(A⟹B) without inhibitor, atenolol and propranolol as calibrators
Protocol: The Caco-2 Papp values were averaged. […] Estimated Peff values were used as input for the rDCS and rtarget calculations. […]
μM) to study transporter‐mediated efflux effects. In those experiments, elacridar was included in both compartments during the equilibration time and assay. The starting concentration (C0) was confirmed by […]
Details of the analytical standard method are presented in Ta ble S8. Measurements were performed in duplicate and reference […]
Papp values were averaged. To […]
permeability was monitored during the experiment using fluorimetric analysis. The pre‐defined lucifer […]
The built‐in literature Papp‐Peff […]
propranolol as calibrator substances was used. Estimated Peff values were used as input for the rDCS and rtarget calculations.
Table S8. Details of the LC‐MS/MS method for quantification of API concentrations in Caco‐2 permeability study […]
Acquity™ HSS T3 (1.8 μm) 2.1 x 30 mm (Waters Ltd, Herts, UK) fitted with Column SecurityGuard™ ULTRA Fully Porous Polar C18 cartridge (Phenomenex, […]
Mobile phase A 10 mM ammonium formate + 0.1 % v/v formic acid in water
Mobile phase B 100% Methanol
Gradient time profile 0.60 5 95

[3] = pKa by Fast UV spectrometric titration (SiriusT3); type: physicochemical; conditions: water/methanol mixtures; Yasuda–Shedlovsky extrapolation from water/methanol titrations, 25 °C; low absorbance, value to be treated with caution
Description: A high-throughput spectrometric screening assay (Fast UV method) using the SiriusT3 (Pion Inc., Billerica, MA, USA) was applied. Samples were titrated under varying water/methanol ratios and apparent pKa values were extrapolated using the Yasuda–Shedlovsky extrapolation. The experimental details are provided in Supplementary Materials. Measured pKa values are presented as means (±SD) and were compared to literature values as well as in silico predictions using the software ADMET Predictor version 9 (Simulations Plus Inc., Lancaster, CA, USA) and ACD/Labs Release 2021.1.2 (Advanced Chemistry Development Inc., Toronto, ON, Canada). […]
r0 2 ∙ ρ ∙IDR∙Dose ൌ DF ∙ PefRsi ∙mdissolved (r0 < 30 μm, hparticle = r0) (S39) […]
spectrometric screening assay (Fast UV method) using an automated titrator system with an incorporated UV‐Vis spectrometer (SiriusT3, Pion Inc., Billerica, MA, USA). […] The pKa values were determined from three titrations with different water/methanol ratios and extrapolation of apparent pKa values in the presence of co‐solvents using the Yasuda‐Shedlovsky extrapolation. Measured pKa values are presented as means with standard deviation and were compared to literature va lues and predictions using the software ADMET Predictor

[4] = cited from earlier work

## CCn1c(=O)c2c(nc(/C=C/c3ccc(OC)c(OC)c3)n2C)n(CC)c1=O [Istradefylline, istradefylline]
[1]
  IDR FaSSIF V1 (powder dissolution method): 0.302 ± 0.010 µg/min/cm^2 and 0.302 ± 0.010 ^3 µg/min/cm^2
[2]
  estimated/predicted human Peff: 4.66 ×10⁻⁶ cm/s
  Estimated human Peff: 466 ×10⁻⁶ cm/s

## Cc1ncc(OC[C@@]2(c3cccc(F)c3)C[C@H]2C(=O)Nc2ccc(F)cn2)c(C)n1 [Lemborexant, lemborexant]
[3]
  pKa: 2.18 ± 0.05
[2]
  estimated/predicted human Peff: 4.2 ×10⁻⁶ cm/s
  Estimated human Peff: 420 ×10⁻⁶ cm/s
[4]
  solubility at pH 1.0: 1.6 mg/mL
